Data on 14 compounds can be found in US20250170266A1 (ZYMEWORKS BC INC., priority 2022, published 2025).

Structures are written as SMILES. Read-outs that look alike come from different tables or passages of the source.

Holding throughout (assay type): cell-based
For one assay, the target named is T1, mTLR7 (Mus musculus, UniProt P58681).
T1 construct: host or cells: HEK-Blue mTLR7 reporter cells (HEK293-derived, own knowledge)
T1 sequence (P58681 27-1050): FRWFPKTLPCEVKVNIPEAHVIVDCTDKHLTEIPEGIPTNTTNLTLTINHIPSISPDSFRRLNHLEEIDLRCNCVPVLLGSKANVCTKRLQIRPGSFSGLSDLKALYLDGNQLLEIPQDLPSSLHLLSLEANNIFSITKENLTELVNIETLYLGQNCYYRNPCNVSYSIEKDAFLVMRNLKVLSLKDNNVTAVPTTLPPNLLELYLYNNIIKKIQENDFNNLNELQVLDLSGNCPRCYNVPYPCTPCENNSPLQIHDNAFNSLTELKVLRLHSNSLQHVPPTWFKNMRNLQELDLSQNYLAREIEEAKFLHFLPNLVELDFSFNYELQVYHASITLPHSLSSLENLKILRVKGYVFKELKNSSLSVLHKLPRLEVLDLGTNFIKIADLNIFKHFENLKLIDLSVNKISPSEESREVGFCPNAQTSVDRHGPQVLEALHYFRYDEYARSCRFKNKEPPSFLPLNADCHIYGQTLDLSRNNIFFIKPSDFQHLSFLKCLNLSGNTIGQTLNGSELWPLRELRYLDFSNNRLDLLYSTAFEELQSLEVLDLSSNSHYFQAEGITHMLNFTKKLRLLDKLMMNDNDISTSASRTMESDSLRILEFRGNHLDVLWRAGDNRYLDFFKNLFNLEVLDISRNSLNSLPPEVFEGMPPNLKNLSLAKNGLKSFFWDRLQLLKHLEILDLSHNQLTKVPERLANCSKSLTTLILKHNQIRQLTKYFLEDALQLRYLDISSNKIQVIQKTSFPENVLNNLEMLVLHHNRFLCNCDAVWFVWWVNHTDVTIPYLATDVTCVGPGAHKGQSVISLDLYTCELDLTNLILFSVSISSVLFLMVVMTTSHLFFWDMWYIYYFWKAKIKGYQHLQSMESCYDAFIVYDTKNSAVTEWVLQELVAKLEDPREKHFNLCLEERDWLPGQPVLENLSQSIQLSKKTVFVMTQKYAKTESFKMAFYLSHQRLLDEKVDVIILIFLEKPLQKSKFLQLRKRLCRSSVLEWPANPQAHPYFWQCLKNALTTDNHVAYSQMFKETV
Put plainly: Reporter Gene Assay (RGA), HEK-Blue mTLR7 reporter cells, SEAP readout. The note with it: overnight incubation, SEAP absorbance 620 nm. In outline: (§1)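 HEK-Blue reporter cells expressing human or mouse TLR7 (1.5×10^4 cells) were treated with an 11-point, 4-fold compound titration from 15 pM in HEK-Blue Detection medium. Incubation was overnight at 37° C with 5% CO2. Secreted embryonic alkaline phosphatase was read as absorbance at 620 nm.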

In the next assay the test system is Mouse splenocytes. Kind of assay: Mouse Splenocyte Assay, cytokine release (HTRF). The note with it: 24 hours, mIL6 in supernatant; for EC50: Splenocyte, read-out: Splenocyte IL6 EC50. In outline:
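Splenocytes from female balb/c nude mice, thawed, 100,000 per well in RPMI + 10% FBS. Exposed for 24 h at 37 °C to a 4-fold 11-point compound titration from 15 μM; supernatant mIL6 and mTNFα measured by HTRF.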

Assay [1] concerns Human peripheral blood mononuclear cells (PBMCs). Kind of assay: Human PBMC Assay, cytokine release (HTRF). The settings on record: 24 hours; for EC50: PBMC. In outline: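 Cryopreserved human PBMCs, rested overnight with 10 ng/ml hIL3, then 300,000 cells/well treated 24 h at 37° C with compound (4-fold, 11-point titration from 15 μM) in RPMI+10% FBS. Supernatant hIL6, hTNFα and hIFNα measured by HTRF; growth medium as negative control.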

The next assay concerns the target T2, hTLR7 (Homo sapiens, UniProt Q9NYK1).
T2 construct: host or cells: HEK-Blue hTLR7 reporter cells (HEK293-derived, own knowledge)
T2 sequence (Q9NYK1 27-1049): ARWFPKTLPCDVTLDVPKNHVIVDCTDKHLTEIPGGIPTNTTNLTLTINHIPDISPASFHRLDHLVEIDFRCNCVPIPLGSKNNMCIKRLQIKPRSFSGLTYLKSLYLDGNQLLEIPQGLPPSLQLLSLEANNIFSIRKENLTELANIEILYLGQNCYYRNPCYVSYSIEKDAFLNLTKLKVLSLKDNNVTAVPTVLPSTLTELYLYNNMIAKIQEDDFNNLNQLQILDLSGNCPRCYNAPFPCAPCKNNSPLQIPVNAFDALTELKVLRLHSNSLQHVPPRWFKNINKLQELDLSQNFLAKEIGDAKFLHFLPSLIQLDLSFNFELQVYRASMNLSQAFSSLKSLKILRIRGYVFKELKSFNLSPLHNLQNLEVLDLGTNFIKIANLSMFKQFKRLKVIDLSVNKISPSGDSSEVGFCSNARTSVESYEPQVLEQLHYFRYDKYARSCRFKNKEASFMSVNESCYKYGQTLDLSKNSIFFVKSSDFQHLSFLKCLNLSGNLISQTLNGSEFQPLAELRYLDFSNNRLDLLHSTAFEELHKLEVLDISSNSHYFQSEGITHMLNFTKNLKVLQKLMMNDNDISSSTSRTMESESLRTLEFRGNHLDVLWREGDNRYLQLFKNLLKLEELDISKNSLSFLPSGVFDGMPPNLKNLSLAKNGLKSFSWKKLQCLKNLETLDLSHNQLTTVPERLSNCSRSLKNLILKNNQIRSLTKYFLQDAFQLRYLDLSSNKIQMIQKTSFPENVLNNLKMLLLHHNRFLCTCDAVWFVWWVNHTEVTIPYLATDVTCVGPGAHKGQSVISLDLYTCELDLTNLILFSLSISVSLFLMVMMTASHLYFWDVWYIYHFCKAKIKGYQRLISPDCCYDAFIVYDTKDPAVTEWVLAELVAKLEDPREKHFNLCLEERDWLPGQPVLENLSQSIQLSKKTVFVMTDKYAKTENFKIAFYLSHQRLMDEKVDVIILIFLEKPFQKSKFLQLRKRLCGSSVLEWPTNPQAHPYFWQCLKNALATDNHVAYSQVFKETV
Kind of assay: Reporter Gene Assay (RGA), HEK-Blue hTLR7 reporter cells, SEAP readout. The note with it: overnight incubation, SEAP absorbance 620 nm. In outline:
as §1
On the technique in general: In a reporter assay the amount or activity of a reporter protein is the signal.

Setting [2] is: hIFNα in supernatant, EC50 values approximated and divided into groups, read-out: PBMC IFNa EC50.
Setting [3] is: hIL6 in supernatant, read-out: PBMC IL6 EC50.

As for `CCCCOc1nc(N)c2nc(O)n(Cc3ccc(CNC)cc3OC)c2n1` [Compound 163, 6-amino-2-butoxy-9-(2-methoxy-4-((methylamino)methyl)benzyl)-9H-purin-8-ol], the EC50 – broadly, the concentration giving half of the maximal effect – was 3.3 nM at mTLR7, 2.9 nM with Mouse splenocytes, < 0.1 nM in assay [1] (setting [2]) and 0.7 nM on hTLR7.
In the case of `CCCCCNc1nc(N)c2nc(O)n(Cc3ccc(CNCc4ccc(CN)cc4)cc3)c2n1` [Compound 191, 6-amino-9-(4-(((4-(aminomethyl)benzyl)amino)methyl)benzyl)-2-(pentyl-amino)-9H-purin-8-ol], the EC50 at mTLR7 is 0.5 nM; in the assay with Mouse splenocytes, 45.9 nM; in assay [1] (setting [2]), < 0.1 nM; at hTLR7, 29 nM.
Turning to `CCOc1nc(N)c2nc(O)n(Cc3ccc(CNCCN)cc3OC)c2n1` [Compound 111, 6-amino-9-(4-(((2-aminoethyl)amino)methyl)-2-methoxybenzyl)-2-ethoxy-9H-purin-8-ol], the EC50 on mTLR7 was 86.9 nM; in the assay on Mouse splenocytes, 20.8 nM; in assay [1] (setting [2]), 1 to 10 nM; in assay [1] (setting [3]), 531 nM; on hTLR7 it was 102 nM.
In the case of `CCCCOc1nc(N)c2nc(O)n(Cc3ccc(CNCC(C)(C)O)cc3OC)c2n1` [Compound 159, 6-amino-2-butoxy-9-(4-(((2-hydroxy-2-methylpropyl)amino)methyl)-2-methoxybenzyl)-9H-purin-8-ol], the EC50 at mTLR7 was 2.9 nM; in the assay with Mouse splenocytes it was 2 nM; in assay [1] (setting [2]), < 0.1 nM; on hTLR7, 1.6 nM.
`CCOc1nc(N)c2nc(O)n(Cc3ccc(CNCc4cccnc4)cc3OC)c2n1` [Compound 193]: the EC50 at mTLR7 was 5.9 nM; in the assay with Mouse splenocytes, 48.2 nM; in assay [1] (setting [2]) it was 0.1 to 1 nM; in assay [1] (setting [3]), 109 nM; on hTLR7, 60 nM.
On to `CCOc1nc(N)c2nc(O)n(Cc3ccc(CNCCN4CCSCC4)cc3OC)c2n1` [Compound 137, 6-amino-2-ethoxy-9-(2-methoxy-4-(((2-thiomorpholinoethyl)amino)methyl)-benzyl)-9H-purin-8-ol], for which the EC50 at mTLR7 is 210 nM; in the assay on Mouse splenocytes, 230 nM; in assay [1] (setting [2]) it was 0.1 to 1 nM; in assay [1] (setting [3]), 39.4 nM; at hTLR7, 22.2 nM.
Take `CCCCCNc1nc(N)c2nc(O)n(Cc3ccc(CN4CCNCC4)cc3)c2n1` [Compound 187, 6-amino-2-(pentylamino)-9-(4-(piperazin-1-ylmethyl)benzyl)-9H-purin-8-ol]: the concentration for a half-maximal effect (EC50) at mTLR7 is 9 nM; with Mouse splenocytes, 131 nM; in assay [1] (setting [2]) it was 0.1 to 1 nM; in assay [1] (setting [3]), 9 nM; at hTLR7, 94 nM.
For the compound `CCOc1nc(N)c2nc(O)n(Cc3ccc(CNCCN4CCOCC4)cc3OC)c2n1` [Compound 135, 6-amino-2-ethoxy-9-(2-methoxy-4-(((2-morpholinoethyl)amino)methyl)benzyl)-9H-purin-8-ol], the EC50 on mTLR7 is 157 nM; in the assay with Mouse splenocytes it was 137 nM; in assay [1] (setting [2]), 0.1 to 1 nM; in assay [1] (setting [3]), 42.3 nM; on hTLR7 it was 13.3 nM.
For the compound `CCOc1nc(N)c2nc(O)n(Cc3ccc(CN4CCNCC4)cc3F)c2n1` [Compound 152, 6-amino-2-ethoxy-9-(2-fluoro-4-(piperazin-1-ylmethyl)benzyl)-9H-purin-8-ol], the EC50 was 31.7 nM on mTLR7, 0.1 to 1 nM in assay [1] (setting [2]), 17 nM in assay [1] (setting [3]) and 1.3 nM on hTLR7. Besides, the “Splenocyte IL6 EC50 (nM)” value in the assay on Mouse splenocytes was “inactive”.
As for `CCOc1nc(N)c2nc(O)n(Cc3ccc(CNCc4ccc(CNCc5ccccc5)cc4)cc3OC)c2n1` [Compound 147, 6-amino-9-(4-(((4-((benzylamino)methyl)benzyl)amino)methyl)-2-methoxy-benzyl)-2-ethoxy-9H-purin-8-ol], the EC50 on mTLR7 was 16.9 nM; in the assay with Mouse splenocytes, 13.2 nM; in assay [1] (setting [2]) it was < 0.1 nM; in assay [1] (setting [3]), 38.8 nM; at hTLR7, 0.9 nM.
For `CCCCOc1nc(N)c2nc(O)n(Cc3ccc(N4CCNCC4)cc3OC)c2n1` [Compound 169, 6-amino-2-butoxy-9-(2-methoxy-4-(piperazin-1-yl)benzyl)-9H-purin-8-ol], the EC50 at mTLR7 is 3 nM; with Mouse splenocytes, 23.2 nM; in assay [1] (setting [2]), 1 to 10 nM; at hTLR7, 1.1 nM.
In the case of `CCOc1nc(N)c2nc(O)n(Cc3ccc(CNCc4ccc(CN5CCC(N)CC5)cc4)cc3OC)c2n1` [Compound 144, 6-amino-9-(4-(((4-((4-aminopiperidin-1-yl)methyl)benzyl)amino)methyl)-2-methoxybenzyl)-2-ethoxy-9H-purin-8-ol], the EC50 on mTLR7 is 1330 nM; in the assay with Mouse splenocytes it was 372 nM; in assay [1] (setting [2]) it was > 10 nM; in assay [1] (setting [3]) it was 191 nM; on hTLR7, 79.5 nM.
In the case of `CCCCOc1nc(N)c2nc(O)n(Cc3ccc(CNCCCCN)cc3OC)c2n1` [Compound 160, 6-amino-9-(4-(((4-aminobutyl)amino)methyl)-2-methoxybenzyl)-2-butoxy-9H-purin-8-ol], the EC50 on mTLR7 was 10 nM; in the assay with Mouse splenocytes, 6.6 nM; in assay [1] (setting [2]), < 0.1 nM; in assay [1] (setting [3]), 1080 nM; at hTLR7, 7.2 nM.
Consider `CCCCOc1nc(N)c2nc(O)n(Cc3ccc(CCN4CCNCC4)cc3OC)c2n1` [Compound 180, 6-amino-2-butoxy-9-(2-methoxy-4-(2-(piperazin-1-yl)ethyl)benzyl)-9H-purin-8-ol], for which the EC50 at mTLR7 was 79.9 nM; with Mouse splenocytes, 873 nM; in assay [1] (setting [2]), > 10 nM; on hTLR7, 34 nM. Moreover, the “PBMC IL6 EC50 (nM)” value in assay [1] (hIL6 in supernatant) is “inactive”.
